Experimental data from patent publication US10647680B2, “Urea compound, preparation method therefor and medical use thereof” (Ancureall Pharmaceutical (Shanghai) Co., Ltd., priority 2016, dated 2020).

Columns and labels:
[1] = test system: MV4-11 (FLT3 ITD+/+ mutant type); assay: In vitro growth inhibition (GI50), MV4-11; format: cell-based, human; conditions: Homo sapiens, MV4-11; Cell lines of leukemia; read-out: GI 50 MV4-11 FLT3 (ITD +/+)
Source text: (§1) 1. Cell Lines and Cell Cultures
(§2) Tumor cell line is an effective cell model for studying the inhibition of tumor cell growth or proliferation in vitro. In the present invention, a representative tumor cell line was selected to determine the cell growth inhibition activity of the present compound. All cell lines used were from ATCC, DSMZ, and the Cell Bank of the Chinese Academy of Sciences. Cell culture conditions and methods were in accordance with the requirements of each cell line. Cells were subcultured in vitro for no more than 3 passages each time, and as required, single-clone purification and identification of cell lines could be carried out.
(§3) The cell culture media used were RPMI1640 (Gibco), MEM (Gibco), McCOY'S5A (Gibco), and IMDM (Gibco). The complete medium was prepared by supplement with 5˜20% fetal calf serum (Gibco), 1% double-antibiotics (10000 units/mL penicillin and 10000 units/mL), 2 mM glutamine or 1 mM sodium pyruvate, respectively.
(§4) The human acute […] monomonocyte leukemia cell line MV4-11 (FLT3 ITD+/+ mutant type, ATCC) was cultured in a complete medium comprising 1×IMDM and 10% FBS. Human acute myeloid leukemia cell line MOLM-13 (FLT3 ITD+/− mutant type, DSMZ), human acute lymphoblastic leukemia cell line RS4; 11 (FLT3 wild type, ATCC), human chronic granulocytic leukemia cell line K562 (FLT3 negative expression, positive expression of BCR-ABL fusion protein, ATCC), human promyelocytic leukemia cell line HL-60 (FLT3 wild type, ATCC), human B lymphoblastic leukemia cell line RAMOS (positive expression of Brutons tyrosine protein kinase, ATCC), human acute myeloid leukemia cell line Kasumi-1 (c-Kit N822K mutant type, ATCC), human acute monocytic leukemia cell line U937 (FLT3 wild-type, ATCC), human acute myeloid leukemia cell line OCI-AML3 (NPMc+ mutant type, ATCC), human acute myeloid leukemia cell line KG-1 (expressing FGFR1OP2-FGFR1 fusion protein, ATCC) were cultured in a complete medium comprising 1×RPMI1640 and 10% FBS, respectively.
(§5) The suspension cells were collected by centrifugation. The supernatant was discarded and the cell pellet was resuspended and counted. Different cell concentrations (5˜10×10^4 cells/mL) were prepared according to the growth cycle of each cell line and then seeded on a 96-well plate (Corning), 100 μL/well. The cells were incubated overnight at 37° C., 5% CO2. The compounds were added to the cells on the second day with 2 wells in parallel. The final concentration of organic solvent shall not exceed 1%. The cells were continually incubated for 3 to 5 days, and then subjected to MTT assay.
(§6) The compound was stored in a concentration of 10 mM at −20° C. and diluted to 2- or 10-fold series prior to use.
(§7) Dojindo CCK8 reagent kit was used as MTT assay. […] FC meter was used as microplate reader.
(§8) For adherent cells, culture medium was removed and immediately replaced with the fresh prepared medium which contains 10% CCK8 reagent (100 μL/well). For the suspension cells, CCK8 was directly added to 10% of the final concentration. The cells were continually incubated for 1˜4 h. […] The experiment was independently repeated 1˜3 times, and subject to biological statistical analysis. 4. Experimental Results
(§9) The initial concentration of the compound was 5,000 nM, then it was serially diluted by 2-fold or 10-fold to 0.01 nM. The GI50 value of each test compound was calculated according to the GI50 assay and calculation method. The experiments were repeated 1 to 3 times, and data were subjected to biological statistical analysis.

[2] = test system: MOLM-13 (FLT3 ITD+/− mutant type); assay: In vitro growth inhibition (GI50), MOLM-13; format: cell-based, human; conditions: Homo sapiens, MOLM-13; Cell lines of leukemia; read-out: GI 50 MOLM-13 FLT3 (ITD+/−)
Source text: as §1, §2, §3, §4, §5, §6, §7, §8, §9

RS4; 11 (FLT3 wild type) = assay: In vitro growth inhibition (GI50), RS4; 11; format: cell-based, human; conditions: Homo sapiens, RS4-11; Cell lines of leukemia; read-out: GI 50 RS4: 11 FLT3 (WT)
Source text: as §1, §2, §3, §4, §5, §6, §7, §8, §9

[3] = test system: K562 (FLT3 negative expression, positive expression of BCR-ABL fusion protein); assay: In vitro growth inhibition (GI50), K562; format: cell-based; conditions: Homo sapiens, Cell lines of leukemia, read-out: GI 50 K562 BCR-ABL
Source text: as §1, §2, §3, §4, §5, §6, §7, §8, §9

[4] = test system: RAMOS (positive expression of Brutons tyrosine protein kinase); assay: In vitro growth inhibition (GI50), RAMOS; format: cell-based; conditions: Homo sapiens, Cell lines of leukemia, read-out: GI 50 Ramos BTK
Source text: as §1, §2, §3, §4, §5, §6, §7, §8, §9

U937 (FLT3 wild-type) = assay: In vitro growth inhibition (GI50), U937; format: cell-based; conditions: Homo sapiens, U-937; Cell lines of leukemia; read-out: GI 50 U937 FLT 3(WT)
Source text: as §1, §2, §3, §4, §5, §6, §7, §8, §9

[5] = test system: Kasumi-1 (c-Kit N822K mutant type); assay: In vitro growth inhibition (GI50), Kasumi-1; format: cell-based; conditions: Homo sapiens, Cell lines of leukemia, read-out: GI 50 Kasumi-1 Kit (N822K)
Source text: as §1, §2, §3, §4
as §5, with “Adherent cells were digested with 0.25% pancreatin-EDTA (Gibco). The suspension” for “The suspension”
(§10) The compound of the present invention and the control compound were dissolved in DMSO (Sigma) respectively, with the purity of more than 98%. The compound was stored in a concentration of 10 mM at −20° C. and diluted to 2- or 10-fold series prior to use.
(§11) Dojindo CCK8 reagent kit was used as MTT assay. THERMO […] FC meter was used as microplate reader.
(§12) For adherent cells, culture medium was removed and immediately replaced with the fresh prepared medium which contains 10% CCK8 reagent (100 μL/well). For the suspension cells, CCK8 was directly added to 10% of the final concentration. The cells were continually incubated for 1˜4 h. When a dark yellow color could be observed in the solvent control wells, the absorbance value at OD450 nm was measured and the cell growth rate was calculated according to the following formula: Cell Growth Rate (%)=100*(T−T0)/(C−T0) T=optical density of drug treatment cell well—optical density of blank control well; T0=optical density of cell well before drug treatment—optical density of blank control well; C=optical density of cell well of solvent control group—optical density of blank control well. The concentration value of 50% inhibition of cell growth (GI50) was calculated according to the drug concentration and cell growth rate curve. […]

[6] = test system: KG-1 (expressing FGFR1OP2-FGFR1 fusion protein); assay: In vitro growth inhibition (GI50), KG-1; format: cell-based; conditions: Homo sapiens; Cell lines of leukemia; read-out: GI 50 KG-1 FGFR1OP 2-FGFR1
Source text: as §1, §2, §3, §4, §5, §6, §7, §8, §9

HL-60 (FLT3 wild type) = assay: In vitro growth inhibition (GI50), HL-60; format: cell-based; conditions: Homo sapiens, Cell lines of leukemia, read-out: GI 50 HL60 FLT3 (WT)
Source text: as §1, §2, §3, §4
as §5, with “Adherent cells were digested with 0.25% pancreatin-EDTA (Gibco). The suspension” for “The suspension”
as §10, §11, §12

[7] = test system: OCI-AML3 (NPMc+ mutant type); assay: In vitro growth inhibition (GI50), OCI-AML3; format: cell-based; conditions: Homo sapiens, OCI-AML-3; Cell lines of leukemia; read-out: GI 50 OCI- AML3 NPMc+
Source text: as §1, §2, §3, §4, §5, §6, §7, §8, §9

GI50 [1] | GI50 [2] | GI50 (RS4; 11 (FLT3 wild type)) | GI50 [3] | GI50 [4] | GI50 (U937 (FLT3 wild-type)) | GI50 (HL-60 (FLT3 wild type)) | GI50 [7] | SMILES | GI50 [5] | GI50 [6]
0.1 to 1 nM | 0.1 to 1 nM | > 1000 nM | > 1000 nM | > 1000 nM | > 1000 nM | > 1000 nM | > 1000 nM | CN(C)CCOc1ccc2c(c1)ncn2-c1ccc(NC(=O)Nc2cc(C(C)(C)C)on2)cc1 [Compound 20, 1-(5-tert-butyl-isoxazol-3-yl)-3-{4-[5-(2-dimethylamino-ethoxyl)-benzimidazol-1-yl]-phenyl}-urea] | > 1000 nM | > 1000 nM
0.1 to 1 nM | 0.1 to 1 nM | > 1000 nM | > 1000 nM | > 1000 nM | > 1000 nM | > 1000 nM | > 1000 nM | CC(C)(C)c1cc(NC(=O)Nc2ccc(-n3cnc4cc(OC(F)(F)F)ccc43)cc2)no1 [Compound 21, 1-(5-tert-butyl-isoxazol-3-yl)-3-[4-(5-trifluoromethoxy-benzimidazol-1-yl)-phenyl]-urea] | > 1000 nM | > 1000 nM
0.1 to 1 nM | 0.1 to 1 nM | > 1000 nM | > 1000 nM | > 1000 nM | > 1000 nM | > 1000 nM | > 1000 nM | CC(C)(C)c1cc(NC(=O)Nc2ccc(-n3cnc4cc(F)ccc43)cc2)no1 [Compound 22, 1-(5-tert-butyl-isoxazol-3-yl)-3-[4-(5-fluoro-benzimidazol-1-yl)-phenyl]-urea] | > 1000 nM | > 1000 nM
1 to 10 nM | 1 to 10 nM | 100 to 1000 nM | 100 to 1000 nM | > 1000 nM | > 1000 nM | > 1000 nM | > 1000 nM | CC(C)(C)c1cc(NC(=O)Nc2ccc(-n3cnc4cc(C(F)(F)F)ccc43)cc2)no1 [Compound 23, 1-(5-tert-butyl-isoxazol-3-yl)-3-[4-(5-trifluoromethyl-benzimidazol-1-yl)-phenyl]-urea] | > 1000 nM | > 1000 nM
1 to 10 nM | 1 to 10 nM | 100 to 1000 nM | 100 to 1000 nM | > 1000 nM | > 1000 nM | > 1000 nM | > 1000 nM | Cc1ccc2c(c1)ncn2-c1ccc(NC(=O)Nc2cc(C(C)(C)C)on2)cc1 [Compound 24, 1-(5-tert-butyl-isoxazol-3-yl)-3-[4-(5-methyl-benzimidazol-1-yl)-phenyl]-urea] | > 1000 nM | > 1000 nM
0.1 to 1 nM | 0.1 to 1 nM | > 1000 nM | > 1000 nM | > 1000 nM | > 1000 nM | > 1000 nM | > 1000 nM | COc1ccc2ncn(-c3ccc(NC(=O)Nc4cc(C(C)(C)C)on4)cc3)c2c1 [Compound 25, 1-(5-tert-butyl-isoxazol-3-yl)-3-[4-(6-methoxyl-benzimidazol-1-yl)-phenyl]-urea] | > 1000 nM | > 1000 nM
0.1 to 1 nM | 0.1 to 1 nM | 100 to 1000 nM | 100 to 1000 nM | > 1000 nM | > 1000 nM | > 1000 nM | > 1000 nM | COCCOc1ccc2ncn(-c3ccc(NC(=O)Nc4cc(C(C)(C)C)on4)cc3)c2c1 [Compound 26, 1-(5-tert-butyl-isoxazol-3-yl)-3-{4-[6-(2-methoxyl-ethoxyl)-benzimidazol-1-yl]-phenyl]urea] | > 1000 nM | > 1000 nM
1 to 10 nM | 1 to 10 nM | > 1000 nM | > 1000 nM | > 1000 nM | > 1000 nM | > 1000 nM | > 1000 nM | CN(C)CCN(C)c1ccc2ncn(-c3ccc(NC(=O)Nc4cc(C(C)(C)C)on4)cc3)c2c1 [Compound 28, 1-(5-tert-butyl-isoxazol-3-yl)-3-(4-{6-[(2-dimethylamino-ethyl)-methyl-amino]-benzimidazol-1-yl}-phenyl)-urea] | > 1000 nM | > 1000 nM
10 to 100 nM | 10 to 100 nM | > 1000 nM | > 1000 nM | > 1000 nM | > 1000 nM | > 1000 nM | > 1000 nM | CN1CCN(c2ccc3ncn(-c4ccc(NC(=O)Nc5cc(C(C)(C)C)on5)cc4)c3c2)CC1 [Compound 29, 1-(5-tert-butyl-isoxazol-3-yl)-3-{4-[6-(4-methyl-piperazin-1-yl)-benzimidazol-1-yl]-phenyl}-urea] | > 1000 nM | > 1000 nM
> 1000 nM | > 1000 nM | > 1000 nM | > 1000 nM | > 1000 nM | > 1000 nM | 100 to 1000 nM | > 1000 nM | CC(C)(C)c1cc(NC(=O)Nc2ccc(-n3cnc4cccc(OCCN5CCOCC5)c43)cc2)no1 [Compound 30, 1-(5-tert-butyl-isoxazol-3-yl)-3-{4-[7-(2-morpholin-4-yl-ethoxyl)-benzimidazol-1-yl]-phenyl}-urea] | > 1000 nM | > 1000 nM
